Patent publication US6518243B1, “Desleucyl glycopeptide antibiotics and methods of making same” (Trustees of Princeton University, priority 1999, dated 2003)

How the values were obtained:
Test in all cases: Zone of inhibition screen, 96 well agar array format
Format in all cases: cell-based
Design in all cases: scale not given here
S. aureus (ATCC 29213) = system: S. aureus (ATCC 29213)
In short: (§1)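 Panel screening of every compound against several bacterial strains, among them E. faecium ATCC 49624, was done in a 96-well agar array.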

E. faecalis (CL 4877) = system: E. faecalis (CL 4877)
In short: as §1

[1] = system: S. epidermidis (ATCC 12228)
In short: as §1

[2] = zone of inhibition relative to 1 mg/ml stock solution of p-chlorobiphenylvancomycin
[3] = zone of inhibition relative to 1 mg/ml p-chlorobiphenylvancomycin

Row | SMILES | zone score, S. aureus ATCC 29213 (S. aureus (ATCC 29213); [2]) | zone score, E. faecalis CL 4877 (E. faecalis (CL 4877); [2]) | zone score, S. epidermidis ATCC 12228 [1, 2] | zone score, S. aureus ATCC 29213 (S. aureus (ATCC 29213); [3]) | zone score, E. faecalis CL 4877 (E. faecalis (CL 4877); [3]) | zone score, S. epidermidis ATCC 12228 [1, 3]
1 | CC1OC(OC2C(Oc3c4cc5cc3Oc3ccc(cc3Cl)C(O)C3NC(=O)C(NC(=O)C5NC(=O)C(CC(N)=O)NC(=O)C(NC(=O)C5CNCCO5)C(O)c5ccc(c(Cl)c5)O4)c4ccc(O)c(c4)-c4c(O)cc(O)cc4C(C(=O)O)NC3=O)OC(CO)C(O)C2O)CC(C)(NCc2ccc(-c3ccc(Cl)cc3)cc2)C1O (mixture of isomers) [Compound 23] | 2 | 2 | 2 |  |  | 
2 | CC(=O)N1CCCC1C(=O)NC1C(=O)NC(CC(N)=O)C(=O)NC2C(=O)NC3C(=O)NC(C(=O)NC(C(=O)O)c4cc(O)cc(O)c4-c4cc3ccc4O)C(O)c3ccc(c(Cl)c3)Oc3cc2cc(c3OC2OC(CO)C(O)C(O)C2OC2CC(C)(NCc3ccc(-c4ccc(Cl)cc4)cc3)C(O)C(C)O2)Oc2ccc(cc2Cl)C1O (mixture of isomers) [Compound 176] | 2 | 2 | 2 |  |  | 
3 | CC(NC(N)=O)C(=O)NC1C(=O)NC(CC(N)=O)C(=O)NC2C(=O)NC3C(=O)NC(C(=O)NC(C(=O)O)c4cc(O)cc(O)c4-c4cc3ccc4O)C(O)c3ccc(c(Cl)c3)Oc3cc2cc(c3OC2OC(CO)C(O)C(O)C2OC2CC(C)(NCc3ccc(-c4ccc(Cl)cc4)cc3)C(O)C(C)O2)Oc2ccc(cc2Cl)C1O (mixture of isomers) [Compound 206] |  |  |  | 2 | 2 | 2
4 | CCC(O)C(=O)NC1C(=O)NC(CC(N)=O)C(=O)NC2C(=O)NC3C(=O)NC(C(=O)NC(C(=O)O)c4cc(O)cc(O)c4-c4cc3ccc4O)C(O)c3ccc(c(Cl)c3)Oc3cc2cc(c3OC2OC(CO)C(O)C(O)C2OC2CC(C)(NCc3ccc(-c4ccc(Cl)cc4)cc3)C(O)C(C)O2)Oc2ccc(cc2Cl)C1O (mixture of isomers) [Compound 286] |  |  |  | 2 | 2 | 2
5 | CC(=O)NC(Cc1cnc[nH]1)C(=O)NC1C(=O)NC(CC(N)=O)C(=O)NC2C(=O)NC3C(=O)NC(C(=O)NC(C(=O)O)c4cc(O)cc(O)c4-c4cc3ccc4O)C(O)c3ccc(c(Cl)c3)Oc3cc2cc(c3OC2OC(CO)C(O)C(O)C2OC2CC(C)(NCc3ccc(-c4ccc(Cl)cc4)cc3)C(O)C(C)O2)Oc2ccc(cc2Cl)C1O (mixture of isomers) [Compound 324] |  |  |  | 2 | 2 | 2
6 | CSCCC(NC=O)C(=O)NC1C(=O)NC(CC(N)=O)C(=O)NC2C(=O)NC3C(=O)NC(C(=O)NC(C(=O)O)c4cc(O)cc(O)c4-c4cc3ccc4O)C(O)c3ccc(c(Cl)c3)Oc3cc2cc(c3OC2OC(CO)C(O)C(O)C2OC2CC(C)(NCc3ccc(-c4ccc(Cl)cc4)cc3)C(O)C(C)O2)Oc2ccc(cc2Cl)C1O (mixture of isomers) [Compound 326] |  |  |  | 2 | 2 | 2
7 | CC(N)C(=O)NC(C)C(=O)NC1C(=O)NC(CC(N)=O)C(=O)NC2C(=O)NC3C(=O)NC(C(=O)NC(C(=O)O)c4cc(O)cc(O)c4-c4cc3ccc4O)C(O)c3ccc(c(Cl)c3)Oc3cc2cc(c3OC2OC(CO)C(O)C(O)C2OC2CC(C)(NCc3ccc(-c4ccc(Cl)cc4)cc3)C(O)C(C)O2)Oc2ccc(cc2Cl)C1O (stereo not drawn) [Compound 35] | 2 | 2 | 2 |  |  | 
8 | COc1cc(OC)c(CNC(=O)CC(N)C(=O)NC2C(=O)NC(CC(N)=O)C(=O)NC3C(=O)NC4C(=O)NC(C(=O)NC(C(=O)O)c5cc(O)cc(O)c5-c5cc4ccc5O)C(O)c4ccc(c(Cl)c4)Oc4cc3cc(c4OC3OC(CO)C(O)C(O)C3OC3CC(C)(NCc4ccc(-c5ccc(Cl)cc5)cc4)C(O)C(C)O3)Oc3ccc(cc3Cl)C2O)c(OC)c1 (stereo not drawn) [Compound 45] | 2 | 2 | 2 |  |  | 
9 | CC1OC(OC2C(Oc3c4cc5cc3Oc3ccc(cc3Cl)C(O)C3NC(=O)C(NC(=O)C5NC(=O)C(CC(N)=O)NC(=O)C(NC(=O)C(N)CSCCO)C(O)c5ccc(c(Cl)c5)O4)c4ccc(O)c(c4)-c4c(O)cc(O)cc4C(C(=O)O)NC3=O)OC(CO)C(O)C2O)CC(C)(NCc2ccc(-c3ccc(Cl)cc3)cc2)C1O (stereo not drawn) [Compound 48] | 2 | 2 | 2 |  |  | 
10 | CC1OC(OC2C(Oc3c4cc5cc3Oc3ccc(cc3Cl)C(O)C3NC(=O)C(NC(=O)C5NC(=O)C(CC(N)=O)NC(=O)C(NC(=O)C5CC(O)CN5)C(O)c5ccc(c(Cl)c5)O4)c4ccc(O)c(c4)-c4c(O)cc(O)cc4C(C(=O)O)NC3=O)OC(CO)C(O)C2O)CC(C)(NCc2ccc(-c3ccc(Cl)cc3)cc2)C1O (stereo not drawn) [Compound 54] | 2 | 2 | 2 |  |  | 
11 | CC1OC(OC2C(Oc3c4cc5cc3Oc3ccc(cc3Cl)C(O)C3NC(=O)C(NC(=O)C5NC(=O)C(CC(N)=O)NC(=O)C(NC(=O)CC(N)C(N)=O)C(O)c5ccc(c(Cl)c5)O4)c4ccc(O)c(c4)-c4c(O)cc(O)cc4C(C(=O)O)NC3=O)OC(CO)C(O)C2O)CC(C)(NCc2ccc(-c3ccc(Cl)cc3)cc2)C1O (stereo not drawn) [Compound 59] | 2 | 2 | 2 |  |  | 
12 | CC1OC(OC2C(Oc3c4cc5cc3Oc3ccc(cc3Cl)C(O)C3NC(=O)C(NC(=O)C5NC(=O)C(CC(N)=O)NC(=O)C(NC(=O)c5nccnc5C(N)=O)C(O)c5ccc(c(Cl)c5)O4)c4ccc(O)c(c4)-c4c(O)cc(O)cc4C(C(=O)O)NC3=O)OC(CO)C(O)C2O)CC(C)(NCc2ccc(-c3ccc(Cl)cc3)cc2)C1O (stereo not drawn) [Compound 283] |  |  |  | 2 |  | 2
13 | CC1OC(OC2C(Oc3c4cc5cc3Oc3ccc(cc3Cl)C(O)C3NC(=O)C(NC(=O)C5NC(=O)C(CC(N)=O)NC(=O)C(NC(=O)C=NNC(N)=O)C(O)c5ccc(c(Cl)c5)O4)c4ccc(O)c(c4)-c4c(O)cc(O)cc4C(C(=O)O)NC3=O)OC(CO)C(O)C2O)CC(C)(NCc2ccc(-c3ccc(Cl)cc3)cc2)C1O (stereo not drawn) [Compound 289] |  |  |  | 2 |  | 2
14 | CC1OC(OC2C(Oc3c4cc5cc3Oc3ccc(cc3Cl)C(O)C3NC(=O)C(NC(=O)C5NC(=O)C(CC(N)=O)NC(=O)C(NC(=O)C5CCCO5)C(O)c5ccc(c(Cl)c5)O4)c4ccc(O)c(c4)-c4c(O)cc(O)cc4C(C(=O)O)NC3=O)OC(CO)C(O)C2O)CC(C)(NCc2ccc(-c3ccc(Cl)cc3)cc2)C1O (stereo not drawn) [Compound 316] |  |  |  | 2 |  | 2
